pIC50: −log10 of the molar value. In brackets after ≈: the same amount, converted by molar mass.
What was measured:
Untagged E. coli LpxC = target: T1, Untagged E. coli LpxC (Escherichia coli, UniProt P0A725); test: E. coli Enzyme Assay (LpxC deacetylase, RapidFire MS); type: biochemical; conditions: read-out: E. coli plC50 (converted)
T1 construct: Untagged E. Coli LpxC 1-300 was expressed in E. Coli; made in house; host or cells: E. coli
T1 sequence (P0A725 1-300): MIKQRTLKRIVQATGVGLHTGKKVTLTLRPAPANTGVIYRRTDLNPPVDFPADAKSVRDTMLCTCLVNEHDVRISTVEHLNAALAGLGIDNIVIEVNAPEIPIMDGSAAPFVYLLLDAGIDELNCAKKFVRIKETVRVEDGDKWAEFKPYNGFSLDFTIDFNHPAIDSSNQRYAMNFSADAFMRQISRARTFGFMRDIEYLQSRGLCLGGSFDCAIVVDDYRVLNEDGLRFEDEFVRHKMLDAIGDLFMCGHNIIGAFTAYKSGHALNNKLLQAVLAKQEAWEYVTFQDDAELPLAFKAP
From the text: Untagged E. Coli LpxC 1-300 was expressed in E. Coli and purified with NiNTA Agarose, Superdex 200 and Mono Q columns. UDP-3-O—(R-3-hydroxymyristoyl)-N-Acetylglucosamine Substrate was obtained through a custom synthesis from Alberta Innovates Technology Futures. Method Untagged E. coli LpxC is a deacetylase, which can remove an acetyl-group from UDP-3-O—(R-3-hydroxymyristoyl)-N-Acetylglucosamine (m/z 832.1-385) to result in a product (m/z 790.3→385) that is 42 Daltons less than the original acetylated substrate. Direct detection of the deacetylated product and acetylated substrate was accomplished through an Agilent RapidFire v. 3.4/Sciex 4000 Q-Trap RF-MS instrument. […] Following a 30 minute preincubation, 20 μL of 2× substrate [2 μM final concentration; 39.984 mL buffer+16 μL of UDP-3-O—(R-3-hydroxymyristoyl)-N-Acetylglucosamine (at 10 mM Stock)] was added and incubated for 25 minutes. The reaction was quenched by the addition of 10 μL of 1N HCl. The plate was loaded onto the Agilent RapidFire v. 3.4/Sciex 4000 Q-Trap RF-MS instrument for analysis [C4 SPE cartridge, 2 mM ammonium acetate in 100 v/v water as the aqueous eluent and 5 mM ammonium acetate in 25% v/v/25% v/v/50% v/v acetonitrile/acetone/water as the organic eluent]. For dose response experiments % conversion were determined from the substrate and product extracted ion chromatogram (XIC) areas and normalized to the assay high and low controls. Normalized data were fit by ActivityBase XE using the equation y=a+(b−a)/(1+(10^x/10^c)^d), where a is the minimum % activity, b is the maximum % activity, c is the pIC50, and d is the Hill slope. ^1Langsdorf, Erik F. et al. Screening for Antibacterial Inhibitors of the UDP-3-O—(R-3-Hydroxymyristoyl)-N-Acetylglucosamine Deacetylase (LpxC) Using a High-Throughput Mass Spectroscopy Assay. See, J. Biomol. Screen. 2010, 15, 52-61. Minimum Inhibitory Concentration Assay

E. coli 7623 = test: Minimum Inhibitory Concentration Assay (broth microdilution, CLSI); type: cell-based; conditions: Escherichia coli; strain 7623, broth microdilution; read-out: E. coli 7623 MIC
Outline: (§1)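 CLSI broth microdilution for aerobic bacteria; compounds serially diluted in the recommended broth over a final range of 0.125–128 mcg/mL, final DMSO below 1%. MIC read as the lowest concentration inhibiting visible growth.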

K. pneumoniae 1161486 = test: as above; type: cell-based; conditions: Klebsiella pneumoniae; strain 1161486, broth microdilution; read-out: K. pneumoniae 1161486 MIC
Outline: as §1

P. aeruginosa PA01 = test: as above; type: cell-based; conditions: Pseudomonas aeruginosa; strain PA01, broth microdilution; read-out: P. aeruginosa PA01 MIC
Outline: as §1

[1] = target: T2, Untagged Pseudomonas LpxC (Pseudomonas aeruginosa, UniProt P47205); test: P. aeruginosa Enzymatic Assay (LpxC deacetylase, RapidFire MS); type: biochemical
T2 construct: made in house; host or cells: E. coli
T2 sequence (P47205 1-303): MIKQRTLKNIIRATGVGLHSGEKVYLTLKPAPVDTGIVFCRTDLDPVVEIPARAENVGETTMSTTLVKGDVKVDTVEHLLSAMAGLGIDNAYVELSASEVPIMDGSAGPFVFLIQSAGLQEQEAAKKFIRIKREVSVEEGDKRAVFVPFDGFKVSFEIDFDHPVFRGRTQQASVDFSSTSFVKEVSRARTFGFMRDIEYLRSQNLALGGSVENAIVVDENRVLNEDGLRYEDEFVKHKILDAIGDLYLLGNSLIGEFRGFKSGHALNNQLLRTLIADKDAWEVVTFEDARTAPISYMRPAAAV
From the text: P. aeruginosa Enzymatic Assay
Untagged Pseudomonas LpxC was expressed in E. coli from Psuedomonas aeruginosa PAO1 and purified from Q-Sepharose 1 and Q-Sepharose 2 columns. UDP-3-O—(R-3-hydroxymyristoyl)-N-Acetylglucosamine Substrate was obtained through a custom synthesis from Alberta Innovates Technology Futures.
Untagged Pseudomonas LpxC is a deacetylase, which can remove an acetyl-group from UDP-3-O—(R-3-hydroxymyristoyl)-N-Acetylglucosamine to result in a product that is 42 Daltons less than the original acetylated substrate. Direct detection of the deactylated product and acetylated substrate is accomplished through an Agilent RapidFire v. 3.4/Sciex 4000 Q-Trap RF-MS instrument.
Following a 30 minute incubation, 20 μL of 2× substrate [7.680 buffer+5 uL of UDP-3-O—(R-3-hydroxymyristoyl)-N-Acetylglucosamine (at 10 mM Stock)] was added and incubated for 25 minutes. 10 uL of 1N HCl was added to quench the reaction. The plate was loaded onto the Agilent RapidFire v. 3.4/Sciex 4000 Q-Trap RF-MS instrument for analysis, using a C4 SPE cartridge and 2 mM ammonium acetate in 100 v/v water as the aqueous eluent and 5 mM ammonium acetate in […] as the organic eluent. For dose response experiments, % conversion were determined from the substrate and product analytes and normalized data were fit by ABASE/XC50 using the equation y=a+(b−a)/(1+(10^x/10^c)^d), where a is the minimum % activity, b is the maximum % activity, c is the pIC50, and d is the Hill slope. ^1Langsdorf, Erik F. et al. Screening for Antibacterial Inhibitors of the UDP-3-O—(R-3-Hydroxymyristoyl)-N-Acetylglucosamine Deacetylase (LpxC) Using a High-Throughput Mass

Row | MIC (E. coli 7623) [µg/mL] | MIC (K. pneumoniae 1161486) [µg/mL] | MIC (P. aeruginosa PA01) [µg/mL] | pIC50 [1] | SMILES | IC50 (Untagged E. coli LpxC) [nM]
1 | 0.25 (≈ 0.559 µM) | 1 (≈ 2.23 µM) | 16 (≈ 35.8 µM) | 9.00 | Cc1ccc(-c2cc(F)c3c(=O)n(CC[C@](C)(C(=O)NO)S(C)(=O)=O)cnc3c2)cc1 [Example 17, (2R)-4-[5-fluoro-7-(4-methylphenyl)-4-oxo-3,4-dihydroquinazolin-3-yl]-N-hydroxy-2-methanesulfonyl-2-methylbutanamide] | 
2 | 0.06 (≈ 0.124 µM) | 0.063 (≈ 0.13 µM) | 0.25 (≈ 0.517 µM) | 9.00 | C[C@@](CCn1ccc2cc(-c3ccc(CNC4CC4)cc3)ccc2c1=O)(C(=O)NO)S(C)(=O)=O [Example 75, (2R)-4-(6-{4-[(cyclopropylamino)methyl]phenyl}-1-oxo-1,2-dihydroisoquinolin-2-yl)-N-hydroxy-2-methanesulfonyl-2-methylbutanamide] | 
3 | 0.06 (≈ 0.129 µM) | 0.25 (≈ 0.539 µM) | 8 (≈ 17.3 µM) |  | COc1ccc(-c2ccc3c(=O)n(CC[C@](C)(C(=O)NO)S(C)(=O)=O)cc(F)c3c2)cn1 [Example 87, (2R)-4-[4-fluoro-6-(6-methoxypyridin-3-yl)-1-oxo-1,2-dihdroisoquinolin-2-yl]-N-hydroxy-2-methanesulfonyl-2-methylbutanamide] | 
4 | 0.125 (≈ 0.233 µM) | 0.25 (≈ 0.465 µM) | 2 (≈ 3.72 µM) |  | COCCNCc1ccc(-c2ccc3c(=O)n(CC[C@](C)(C(=O)NO)S(C)(=O)=O)cc(F)c3c2)c(F)c1 [Example 88, (2R)-4-[4-fluoro-6-(2-fluoro-4-{[(2-methoxyethyl)amino]methyl}phenyl)-1-oxo-1,2-dihydroisoquinolin-2-yl]-N-hydroxy-2-methanesulfonyl-2-methylbutanamide] | 
5 | 0.063 (≈ 0.132 µM) | 1 (≈ 2.1 µM) | 32 (≈ 67.2 µM) |  | CN(C)c1ccc(-c2ccc3c(=O)n(CC[C@](C)(C(=O)NO)S(C)(=O)=O)cc(F)c3c2)cn1 [Example 90, (2R)-4-{6-[6-(dimethylamino)pyridin-3-yl]-4-fluoro-1-oxo-1,2-dihydroisoquinolin-2-yl}-N-hydroxy-2-methanesulfonyl-2-methylbutanamide] | 
6 | 0.5 (≈ 1.15 µM) | 0.5 (≈ 1.15 µM) | 4 (≈ 9.21 µM) | 9.00 | C[C@@](CCN1CCc2cc(-c3ccccc3F)ccc2C1=O)(C(=O)NO)S(C)(=O)=O [Example 91, (2R)-4-[6-(2-fluorophenyl)-1-oxo-1,2,3,4-tetrahydroisoquinolin-2-yl]-N-hydroxy-2-methanesulfonyl-2-methylbutanamide] | 
7 | 0.5 (≈ 0.97 µM) | 0.5 (≈ 0.97 µM) | 4 (≈ 7.76 µM) |  | C[C@@](CCN1CCc2cc(-c3ccc(CN4CCOCC4)cc3)ccc2C1=O)(C(=O)NO)S(C)(=O)=O [Example 92, (2R)—N-hydroxy-2-methanesulfonyl-2-methyl-4-(6-{4-[(morpholin-4-yl)methyl]phenyl}-1-oxo-1,2,3,4-tetrahydroisoquinolin-2-yl)butanamide] | 
8 | 0.063 (≈ 0.137 µM) | 0.125 (≈ 0.273 µM) | 0.5 (≈ 1.09 µM) |  | C[C@@](CCn1ccc2cc(-c3ccc(CCO)cc3)ccc2c1=O)(C(=O)NO)S(C)(=O)=O [Example 93, (2R)—N-hydroxy-4-{6-[4-(2-hydroxyethyl)phenyl]-1-oxo-1,2-dihydroisoquinolin-2-yl}-2-methanesulfonyl-2-methylbutanamide] | 
9 | 0.125 (≈ 0.23 µM) | 0.25 (≈ 0.46 µM) | 2 (≈ 3.68 µM) |  | CN(C)CC(=O)OCCc1ccc(-c2ccc3c(=O)n(CC[C@](C)(C(=O)NO)S(C)(=O)=O)ccc3c2)cc1 [Example 94, 2-(4-{2-[(3R)-3-(hydroxycarbamoyl)-3-methanesulfonyl-3-methylpropyl]-1-oxo-1,2-dihydroisoquinolin-6-yl}phenyl)ethyl 2-(dimethylamino)acetate] | 

Row | SMILES | MIC (E. coli 7623) [µg/mL] | MIC (K. pneumoniae 1161486) [µg/mL] | MIC (P. aeruginosa PA01) [µg/mL] | pIC50 [1] | IC50 (Untagged E. coli LpxC) [nM]
10 | COc1ccc(-c2ccc3c(=O)n(CC[C@](C)(C(=O)NO)S(C)(=O)=O)cnc3c2)cc1 [Example 3, (R)—N-hydroxy-4-(7-(4-methoxyphenyl)-4-oxoquinazolin-3(4H)-yl)-2-methyl-2-(methylsulfonyl)butanamide] | 0.06 (≈ 0.135 µM) | 0.5 (≈ 1.12 µM) | 2 (≈ 4.49 µM) |  | 1
11 | C[C@@](CCn1cnc2cc(-c3ccc(CCN4CCOCC4)cc3)ccc2c1=O)(C(=O)NO)S(C)(=O)=O [Example 42, (2R)—N-hydroxy-2-methanesulfonyl-2-methyl-4-(7-{4-[2-(morpholin-4-yl)ethyl]phenyl}-4-oxo-3,4-dihydroquinazolin-3-yl)butanamide] | 0.25 (≈ 0.473 µM) | 0.5 (≈ 0.946 µM) | 2 (≈ 3.78 µM) |  | 1
12 | C[C@@](CCn1ccc2cc(-c3ccc(CN4CCOCC4)cc3)ccc2c1=O)(C(=O)NO)S(C)(=O)=O [Example 64, (2R)—N-hydroxy-2-methanesulfonyl-2-methyl-4-(6-{4-[(morpholin-4-yl)methyl]phenyl}-1-oxo-1,2-dihydroisoquinolin-2-yl)butanamide] | < 0.03 | 0.25 (≈ 0.487 µM) | 0.5 (≈ 0.973 µM) |  | 1
13 | COC(C)(C)CNCc1ccc(-c2ccc3c(=O)n(CC[C@](C)(C(=O)NO)S(C)(=O)=O)ccc3c2)c(F)c1 [Example 68, (2R)-4-[6-(2-fluoro-4-{[(2-methoxy-2-methylpropyl)amino]methyl}phenyl)-1-oxo-1,2-dihydroisoquinolin-2-yl]-N-hydroxy-2-methanesulfonyl-2-methylbutanamide] | 0.125 (≈ 0.228 µM) | 0.5 (≈ 0.913 µM) | 2 (≈ 3.65 µM) |  | 1
14 | CN(C)Cc1ccc(-c2ccc3c(=O)n(CC[C@](C)(C(=O)NO)S(C)(=O)=O)ccc3c2)c(F)c1F [Example 69, (2R)-4-(6-{4-[(dimethylamino)methyl]-2,3-difluorophenyl}-1-oxo-1,2-dihydroisoquinolin-2-yl)-N-hydroxy-2-methanesulfonyl-2-methylbutanamide] | 0.125 (≈ 0.246 µM) | 1 (≈ 1.97 µM) | 1 (≈ 1.97 µM) |  | 1
15 | CCOCCNCc1ccc(-c2ccc3c(=O)n(CC[C@](C)(C(=O)NO)S(C)(=O)=O)ccc3c2)c(F)c1 [Example 72, (2R)-4-[6-(4-{[(2-ethoxyethyl)amino]methyl}-2-fluorophenyl)-1-oxo-1,2-dihydroisoquinolin-2-yl]-N-hydroxy-2-methanesulfonyl-2-methylbutanamide] | 0.125 (≈ 0.234 µM) | 0.25 (≈ 0.468 µM) | 1 (≈ 1.87 µM) |  | 1

From US10781184B2, “Substituted benzazinones as antibacterial compounds” (GlaxoSmithKline Intellectual Property Development Limited, priority 2015, dated 2020)
